Assay results as given in US20250302394A1, “QUANTITATIVE MAGNETIC RESONANCE IMAGING AND TUMOR FORECASTING” (priority 2021, published 2025).
“And” between values parts separate entries of the source, which are not always exact repeats. Equal entries are not always repeated. Where two headings read alike, the source gives them in different places.

Tested on: TNBC

Row | SMILES | median calibrated efficacy rate α of the drug (good-response patient (100% shrinkage of tumor volume at completion of A/C), Framework 1) | median calibrated efficacy rate α of the drug (poor-response patient (33% shrinkage of tumor volume at completion of A/C), Framework 1) | median calibrated efficacy rate α of the drug
1 | COc1cccc2c1C(=O)c1c(O)c3c(c(O)c1C2=O)C[C@@](O)(C(=O)CO)C[C@@H]3O[C@H]1C[C@H](N)[C@H](O)[C@H](C)O1 [doxorubicin] | 0.47 day⁻¹ | 0.24 day⁻¹ | –
2 | O=P1(N(CCCl)CCCl)NCCCO1 (stereo not drawn) [cyclophosphamide] | – | – | 0.60 day⁻¹ and 0.34 day⁻¹
